Results taken from patent publication US4156724A, “N-acylamino-alpha-arylacetamido cephalosporins and antibacterial compositions and methods containing them” (Sumitomo Chemical Company, Limited, priority 1974, dated 1979).
≈ marks a conversion by molar mass, not a printed value.

Legend:
Format in all cases: cell-based
[1] = test system: Staphylococcus aureus 209 P; assay: Minimum Inhibitory Concentration, Staphylococcus aureus 209 P; conditions: Staphylococcus aureus 209 P; for MIC: read-out: Minimum Inhibitory Concentration
Protocol: (§1) anti-microbial activity tests were carried out on the compounds obtained in the Examples.

Serratia No. 72 = assay: Minimum Inhibitory Concentration, Serratia No. 72
Protocol: as §1

[2] = test system: Klebsiella pneumoniae 602; assay: Minimum Inhibitory Concentration, Klebsiella pneumoniae 602; conditions: for MIC: Klebsiella pneumoniae, 602, Klebsiella pneumoniae 602, read-out: Minimum Inhibitory Concentration; for Minimum Inhibitory Concentration: Klebsiella pneumoniae 602
Protocol: as §1

[3] = test system: Enterobacter aerogeneus No. 75; assay: Minimum Inhibitory Concentration, Enterobacter aerogeneus No. 75; conditions: Enterobacter aerogeneus No. 75; for MIC: read-out: Minimum Inhibitory Concentration
Protocol: as §1

[4] = test system: Pseudomonas aeruginosa 104; assay: Minimum Inhibitory Concentration, Pseudomonas aeruginosa 104; conditions: Pseudomonas aeruginosa 104; for MIC: read-out: Minimum Inhibitory Concentration
Protocol: as §1

Proteus vulgaris HX 19 = assay: Minimum Inhibitory Concentration, Proteus vulgaris HX 19; conditions: Proteus vulgaris HX 19; for MIC: HX19, read-out: Minimum Inhibitory Concentration
Protocol: as §1

[5] = test system: Staphylococcus aureus FS 289; assay: Minimum Inhibitory Concentration, Staphylococcus aureus FS 289; conditions: Staphylococcus aureus FS 289, strain resistant to penicillin; for MIC: FS289, read-out: Minimum Inhibitory Concentration
Protocol: as §1
*Staphylococcus aureus FS 289: strain resistant to penicillin

Escherichia coli NIHJ = assay: Minimum Inhibitory Concentration, Escherichia coli NIHJ; conditions: Escherichia coli NIHJ; for MIC: read-out: Minimum Inhibitory Concentration
Protocol: as §1

`NC(=O)Nc1cccc(C(NC(=O)c2cccnc2O)C(=O)NC2C(=O)N3C(C(=O)O)=C(CSc4nnc(CO)s4)CSC23)c1` (centres unmarked) [Example 49] showed an MIC [1] of 0.78 µg/mL (≈ 1.16 µM), an MIC (Serratia No. 72) of 50 µg/mL (≈ 74.3 µM) and an MIC [2] of 6.25 µg/mL (≈ 9.29 µM). It also gave an MIC [3] of 25 µg/mL (≈ 37.2 µM), an MIC [4] of 25 µg/mL (≈ 37.2 µM) and an MIC (Proteus vulgaris HX 19) of 0.78 µg/mL (≈ 1.16 µM). It also gave an MIC [5] of 12.5 µg/mL (≈ 18.6 µM) and an MIC (Escherichia coli NIHJ) of 12.5 µg/mL (≈ 18.6 µM).

`Cn1nnnc1SCC1=C(C(=O)O)N2C(=O)[C@@H](NC(=O)[C@H](NC(=O)c3ccnnc3O)c3ccc(NC(N)=O)cc3)[C@H]2SC1` [Example 17] gave an MIC [1] of 0.39 µg/mL (≈ 0.608 µM), an MIC (Serratia No. 72) of 50 µg/mL (≈ 77.9 µM) and an MIC [2] of 3.13 µg/mL (≈ 4.88 µM). It also gave an MIC [3] of 12.5 µg/mL (≈ 19.5 µM), an MIC [4] of 6.25 µg/mL (≈ 9.74 µM) and an MIC (Proteus vulgaris HX 19) of 0.1 µg/mL (≈ 0.156 µM). It also gave an MIC [5] of 6.25 µg/mL (≈ 9.74 µM) and an MIC (Escherichia coli NIHJ) of 6.25 µg/mL (≈ 9.74 µM).

For `Cn1nnnc1SCC1=C(C(=O)O)N2C(=O)C(NC(=O)C(NC(=O)c3cnc4ccc(O)nc4c3O)c3ccc(O)cc3)C2SC1` (centres unmarked) [Example 174], the MIC [1] was 0.78 µg/mL (≈ 1.17 µM), the MIC (Serratia No. 72) was 12.5 µg/mL (≈ 18.8 µM) and the MIC [2] was 1.56 µg/mL (≈ 2.34 µM). The MIC [3] was 3.13 µg/mL (≈ 4.7 µM), the MIC [4] was 3.13 µg/mL (≈ 4.7 µM) and the MIC (Proteus vulgaris HX 19) was 0.39 µg/mL (≈ 0.586 µM). For the same compound, the MIC [5] was 12.5 µg/mL (≈ 18.8 µM) and the MIC (Escherichia coli NIHJ) was 3.13 µg/mL (≈ 4.7 µM).

For `CC(=O)OCC1=C(C(=O)[O-])N2C(=O)C(NC(=O)C(NC(=O)c3cnc4nc(C)cnc4c3O)c3ccc(O)cc3)C2SC1.[Na+]` (centres unmarked) [Example 136], the “Minimum Inhibitory Concentration” value [1] was 0.78 µg/mL, the “Minimum Inhibitory Concentration” value (Serratia No. 72) was 100 µg/mL and the “Minimum Inhibitory Concentration” value [2] was 3.13 µg/mL. The “Minimum Inhibitory Concentration” value [3] was 6.25 µg/mL, the “Minimum Inhibitory Concentration” value [4] was 6.25 µg/mL and the “Minimum Inhibitory Concentration” value (Proteus vulgaris HX 19) was 0.78 µg/mL. For the same compound, the “Minimum Inhibitory Concentration” value [5] was 6.25 µg/mL and the “Minimum Inhibitory Concentration” value (Escherichia coli NIHJ) was 3.13 µg/mL.

`CC(=O)OCC1=C(C(=O)O)N2C(=O)[C@@H](NC(=O)[C@H](NC(=O)c3cnc4nc(C)ccc4c3O)c3ccc(NC(N)=O)cc3)[C@H]2SC1` [Example 8] was tested, and the MIC [1] was 0.78 µg/mL (≈ 1.2 µM), the MIC (Serratia No. 72) was 50 µg/mL (≈ 77 µM) and the MIC [2] was 12.5 µg/mL (≈ 19.2 µM). The MIC [3] was 12.5 µg/mL (≈ 19.2 µM), the MIC [4] was 6.25 µg/mL (≈ 9.62 µM) and the MIC (Proteus vulgaris HX 19) was 0.39 µg/mL (≈ 0.6 µM). It also gave an MIC [5] of 6.25 µg/mL (≈ 9.62 µM) and an MIC (Escherichia coli NIHJ) of 6.25 µg/mL (≈ 9.62 µM).

With `Nc1cccc(C(NC(=O)c2cnccc2O)C(=O)NC2C(=O)N3C(C(=O)O)=C(CSc4nnc(CO)s4)CSC23)c1` (centres unmarked) [Example 84] the “Minimum Inhibitory Concentration” value [1] was 0.39 µg/mL, the “Minimum Inhibitory Concentration” value (Serratia No. 72) was 50 µg/mL and the “Minimum Inhibitory Concentration” value [2] was 3.13 µg/mL. The “Minimum Inhibitory Concentration” value [3] was 12.5 µg/mL, the “Minimum Inhibitory Concentration” value [4] was 6.25 µg/mL and the “Minimum Inhibitory Concentration” value (Proteus vulgaris HX 19) was 0.2 µg/mL. The “Minimum Inhibitory Concentration” value [5] was 6.25 µg/mL and the “Minimum Inhibitory Concentration” value (Escherichia coli NIHJ) was 6.25 µg/mL.

With `Nc1cccc(C(NC(=O)c2cnccc2O)C(=O)NC2C(=O)N3C(C(=O)O)=C(CSc4nnc(CO)s4)CSC23)c1` (centres unmarked) [Example 69] the MIC [1] was 0.39 µg/mL (≈ 0.619 µM), the MIC (Serratia No. 72) was 50 µg/mL (≈ 79.4 µM) and the MIC [2] was 6.25 µg/mL (≈ 9.93 µM). It also gave an MIC [3] of 12.5 µg/mL (≈ 19.9 µM), an MIC [4] of 6.25 µg/mL (≈ 9.93 µM) and an MIC (Proteus vulgaris HX 19) of 0.2 µg/mL (≈ 0.318 µM). For the same compound, the MIC [5] was 6.25 µg/mL (≈ 9.93 µM) and the MIC (Escherichia coli NIHJ) was 6.25 µg/mL (≈ 9.93 µM).

`Cc1nnc(SCC2=C(C(=O)O)N3C(=O)C(NC(=O)[C@H](NC(=O)c4ccnnc4O)c4ccc(O)cc4)C3SC2)s1` (some centres unmarked) [Example 127] gave an MIC [1] of 0.39 µg/mL (≈ 0.633 µM), an MIC (Serratia No. 72) of 50 µg/mL (≈ 81.2 µM) and an MIC [2] of 6.25 µg/mL (≈ 10.2 µM). The MIC [3] was 12.5 µg/mL (≈ 20.3 µM), the MIC [4] was 6.25 µg/mL (≈ 10.2 µM) and the MIC (Proteus vulgaris HX 19) was 0.2 µg/mL (≈ 0.325 µM). The MIC [5] was 6.25 µg/mL (≈ 10.2 µM) and the MIC (Escherichia coli NIHJ) was 6.25 µg/mL (≈ 10.2 µM).

Compound `CC(=O)OCC1=C(C(=O)O)N2C(=O)C(NC(=O)C(NC(=O)c3cccnc3O)c3ccc(O)cc3)C2SC1` (centres unmarked) [Example 115] has an MIC [1] of 0.39 µg/mL (≈ 0.719 µM), an MIC (Serratia No. 72) of over 200 µg/mL and an MIC [2] of 25 µg/mL (≈ 46.1 µM). It also gave an MIC [3] of 25 µg/mL (≈ 46.1 µM), an MIC [4] of 12.5 µg/mL (≈ 23 µM) and an MIC (Proteus vulgaris HX 19) of 0.78 µg/mL (≈ 1.44 µM). For the same compound, the MIC [5] was 6.25 µg/mL (≈ 11.5 µM) and the MIC (Escherichia coli NIHJ) was 12.5 µg/mL (≈ 23 µM).

With `Cn1nnnc1SCC1=C(C(=O)O)N2C(=O)C(NC(=O)C(NC(=O)c3cnc4nc(N5CCNCC5)ncc4c3O)c3ccc(O)cc3)C2SC1` (centres unmarked) [Example 163] the MIC [1] was 1.56 µg/mL (≈ 2.12 µM), the MIC (Serratia No. 72) was 50 µg/mL (≈ 68 µM) and the MIC [2] was 6.25 µg/mL (≈ 8.51 µM). The MIC [3] was 25 µg/mL (≈ 34 µM), the MIC [4] was 6.25 µg/mL (≈ 8.51 µM) and the MIC (Proteus vulgaris HX 19) was 0.39 µg/mL (≈ 0.531 µM). For the same compound, the MIC [5] was 12.5 µg/mL (≈ 17 µM) and the MIC (Escherichia coli NIHJ) was 12.5 µg/mL (≈ 17 µM).
